Data as given in US20040248913A1, “(Pyridinyl and pyrimidyl) trienoic acid derivatives as retinoid x receptor modulators” (priority 2001, published 2004).

Experiments:
RXRα:PPARγ heterodimer = target: T1, RXRα:PPARγ heterodimer (Homo sapiens, UniProt P19793); assay: RXR:PPARγ heterodimer cotransfection assay in CV-1 cells; assay type: cell-based; details: for Synergy Efficacy (%): maximal response in presence of 100 nM BRL49653 relative to response of BRL49653 alone; for Agonist Efficacy (%): maximal response relative to response of the thiazolidinedione BRL49653
T1 construct: expressed in transfected cells; host or cells: CV-1 cells
T1 sequence (P19793 1-462): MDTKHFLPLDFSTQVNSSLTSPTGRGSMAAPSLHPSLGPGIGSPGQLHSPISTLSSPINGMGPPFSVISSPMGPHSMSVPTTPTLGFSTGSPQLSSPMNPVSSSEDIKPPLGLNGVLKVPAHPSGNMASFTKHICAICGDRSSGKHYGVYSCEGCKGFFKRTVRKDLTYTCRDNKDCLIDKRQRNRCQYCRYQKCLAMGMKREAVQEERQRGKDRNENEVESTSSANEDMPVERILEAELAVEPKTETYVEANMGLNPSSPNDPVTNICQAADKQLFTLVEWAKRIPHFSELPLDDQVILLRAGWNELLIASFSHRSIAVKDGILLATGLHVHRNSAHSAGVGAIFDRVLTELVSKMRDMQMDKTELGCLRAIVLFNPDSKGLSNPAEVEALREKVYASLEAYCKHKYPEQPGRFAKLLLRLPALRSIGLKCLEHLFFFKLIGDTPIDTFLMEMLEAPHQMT
T1 sequence (P37231 1-505 partner): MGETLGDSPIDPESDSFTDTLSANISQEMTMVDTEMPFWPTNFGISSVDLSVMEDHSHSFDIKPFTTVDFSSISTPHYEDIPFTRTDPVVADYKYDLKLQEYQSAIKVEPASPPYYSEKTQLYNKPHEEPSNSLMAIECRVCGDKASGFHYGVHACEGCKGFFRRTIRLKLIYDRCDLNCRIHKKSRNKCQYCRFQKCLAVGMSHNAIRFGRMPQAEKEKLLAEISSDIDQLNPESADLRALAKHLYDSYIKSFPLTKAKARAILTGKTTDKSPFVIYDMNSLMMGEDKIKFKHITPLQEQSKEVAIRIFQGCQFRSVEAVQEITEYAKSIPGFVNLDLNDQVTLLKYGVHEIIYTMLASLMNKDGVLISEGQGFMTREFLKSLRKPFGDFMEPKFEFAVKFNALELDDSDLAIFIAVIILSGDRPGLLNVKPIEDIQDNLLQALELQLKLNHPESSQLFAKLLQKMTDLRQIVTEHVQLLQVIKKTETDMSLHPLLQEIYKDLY
Text: (§1) In the co-transfection assay, cloned cDNA for one or more IRs (e.g., human RARα, RXRα, or PPARγ), alone or in combination (i.e. for heterodimer assays) under the control of a constitutive promoter (e.g., the SV 40, RSV or CMV promoter) is introduced by transfection (a procedure to introduce exogenous genes into cells) into a background cell substantially devoid of endogenous IRs. These introduced gene(s) direct the recipient cells to make the IR protein(s) of interest. A further gene is also introduced (co-transfected) into the same cells in conjunction with the IR gene(s). This further gene, comprising the cDNA for a reporter protein, such as firefly luciferase (LUC), controlled by an appropriate hormone responsive promoter containing a hormone response element (HRE). This reporter plasmid functions as a reporter for the transcriptional-modulating activity of the target IR(s). Thus, the reporter acts as a surrogate for the products (mRNA then protein) normally expressed by a gene under control of the target receptor(s) and their native hormone(s).
The compounds of the present invention were further tested for activity on RXR heterodimers with RARα, RARγ or PPARγ utilizing the cotransfection assay in CV-1 cells as described in Example 6A. The RXR:RAR heterodimer cotransfection assays utilized the following expression plasmids and reporter plasmid: pRShRARα (10 ng/well, Giguere et al., Nature, 330:624 (1987) the disclosure of which is herein incorporated by reference) or pRShRARγ (10 ng/well, Ishikawa et al., Mol. Endocrin., 4:837 (1990) the disclosure of which is herein incorporated by reference) with Δ-MTV-LUC (50 ng/well, Hollenberg and Evans, Cell, 55:899 (1988), the disclosure of which is herein incorporated by reference) containing an RARE which is referred to as two copies of the TRE-palindromic response element described in Umesono et al., Nature, 336:262 (1988), the disclosure of which is herein incorporated by reference. For the RSR:PPARγ heterodimer cotransfection assay, the RXRα receptor expression plasmid, pRShRXRα (10 ng/well), was cotrasfected with the PPARγ expression plasmid, pCMVhPPARγ (10 ng/well), and a reporter plasmid containing three copies of a PPARγ response element (pPREA3-tk-LUC, 50 ng/well; Mukherjee et al., Journ. Biol. Chem., 272:8071-8076 (1997) and references cited therein, the disclosures of which are herein incorporated by reference).
Cotransfections were performed as described in Example 6A. […] Antagonist efficacy and IC50 values were determined as in Example 6A.
(§2) Compounds of the present invention were also tested for the ability to synergize with an RAR or PPARγ agonist in the context of an RXR heterodimer. For these assays the compounds were added to the cells with a fixed concentration of TTNPB (1×10^−9 M) for RXR:RAR heterodimer assay or BRL 49633 (1×10^−7 M) for the RXR:PPARγ heterodimer assay. Efficacy of the compounds of the present invention in the agonist and synergy assays was calculated as the maximum response obtained over the range of the dose response curve relative to the maximum response obtained by the reference agonist. Antagonist efficacy was determined as a function (%) of maximal inhibition.
Kliewer et al., Nature 358:771-774 (1992). To examine the effects of the compounds of the present invention on the transcriptional properties of the RXR:PPARγ, a heterodimer cotransfection assay as described above was employed.

RXRα:RAR heterodimer [1] = assay: RXR:RAR heterodimer cotransfection assay in CV-1 cells; assay type: cell-based, human; details: for Synergy Efficacy (%): maximal response in presence of 3 nM TTNPB relative to response to TTNPB alone; for Agonist Efficacy (%): maximal response relative to response of ATRA
Text: as §1
as §2, with “For these assays the compounds were added to the cells with a fixed concentration of TTNPB (1×10^−9 M) for RXR:RAR heterodimer assay or BRL 49633 (1×10^−7 M) for the RXR:PPARγ heterodimer assay.” left out
(§3) RAR suppresses RXR ligand binding and transactivation of typical RXR agonists via allosteric interactions. […] However, when RAR is occupied, typical RXR agonists activate the heterodimer. […] To examine the effects of the compounds of the present invention on the transcriptional properties of the RXR:RAR heterodimer, a heterodimer cotransfection assay as described above was employed.

RXRα:RAR heterodimer [2] = target: T2, RXRα:RAR heterodimer (Homo sapiens, UniProt P19793); assay: as above; assay type: cell-based; details: for RXR:RAR antagonist activity (in words): antagonist assay; for Antagonist Efficacy (%): relative to maximal repression (100%) in presence of 10 nM TTNPB
T2 construct: expressed in transfected cells; host or cells: CV-1 cells
T2 sequence (P19793 1-462): T1 sequence (P19793 1-462)
Text: as §1
as §2, with “For these assays the compounds were added to the cells with a fixed concentration of TTNPB (1×10^−9 M) for RXR:RAR heterodimer assay or BRL 49633 (1×10^−7 M) for the RXR:PPARγ heterodimer assay.” left out
as §3

Structure (SMILES) | Synergy Efficacy (%) (RXRα:PPARγ heterodimer) | Agonist Efficacy (%) (RXRα:PPARγ heterodimer) | Antagonist Efficacy (%) (RXRα:RAR heterodimer [2]) | RXR:PPARγ agonist activity alone (in words) (RXRα:PPARγ heterodimer; alone) | RXR:PPARγ activity in combination with the PPARγ ligand (in words) (RXRα:PPARγ heterodimer; in combination with the PPARγ ligand) | RXR:RAR agonist activity / transactivation alone (in words) (RXRα:RAR heterodimer [1]) | RXR:RAR agonist activity in combination with TTNPB (in words) (RXRα:RAR heterodimer [1]) | Synergy Efficacy (%) (RXRα:RAR heterodimer [1]) | Agonist Efficacy (%) (RXRα:RAR heterodimer [1]) | RXR:RAR antagonist activity (in words) (RXRα:RAR heterodimer [2])
CCCCOc1c(\C(C)=C/C=C/C(C)=C/C(=O)O)cc(C(C)C)nc1C(C)C [Example 1, 7-(3-Butoxy-2,6-diisopropyl-pyridin-4-yl)-3-methyl-octa-2(E),4(E),6(Z)-trienoic Acid] | 25 | 11 | 93 | partial agonists | stronger activity | not active | not active | 7 | 1 | significant RXR:RAR antagonist activity
CCCOc1c(\C(C)=C/C=C/C(C)=C/C(=O)O)cc(C(C)C)nc1C(C)C [Example 2, 7-(2,6-Diisopropyl-3-propoxy-pyridin-4-yl)-3-methyl-octa-2(E),4(E),6(Z)-trienoic Acid] | 150 | 32 | 88 |  |  | not active | not active | 6 | 2 | significant RXR:RAR antagonist activity

Second part, led by results:

Synergy Efficacy (%) (RXRα:PPARγ heterodimer) | Agonist Efficacy (%) (RXRα:PPARγ heterodimer) | Antagonist Efficacy (%) (RXRα:RAR heterodimer [2]) | Structure (SMILES) | RXR:PPARγ agonist activity alone (in words) (RXRα:PPARγ heterodimer; alone) | RXR:PPARγ activity in combination with the PPARγ ligand (in words) (RXRα:PPARγ heterodimer; in combination with the PPARγ ligand) | RXR:RAR agonist activity / transactivation alone (in words) (RXRα:RAR heterodimer [1]) | RXR:RAR agonist activity in combination with TTNPB (in words) (RXRα:RAR heterodimer [1]) | Synergy Efficacy (%) (RXRα:RAR heterodimer [1]) | Agonist Efficacy (%) (RXRα:RAR heterodimer [1]) | RXR:RAR antagonist activity (in words) (RXRα:RAR heterodimer [2])
233 | 53 | 76 | C/C(=C/C=C/C(C)=C/C(=O)O)c1cc(C(C)C)nc(C(C)C)c1OCC(F)F [Example 4, 7-[3-(2,2-Difluoro-ethoxy)-2,6-diisopropyl-pyridin-4-yl]-3-methyl-octa-2(E),4(E),6(Z)-trienoic acid] |  |  |  | weak to moderate agonist activity | 37 | 9 | 
107 | 55 | 85 | C/C(=C/C=C/C(C)=C/C(=O)O)c1cc(C(C)C)nc(C(C)C)c1OCC(F)(F)F [Example 5, 7-[2,6-Diisopropyl-3-(2,2,2-trifluoro-ethoxy)-pyridin-4-yl]-3-methyl-octa-2(E),4(E),6(Z)-trienoic acid] |  |  |  | weak to moderate agonist activity | 18 | 3 | 
182 | 42 |  | CCOc1c(\C(C)=C/C=C/C(C)=C/C(=O)O)cc(C(C)C)nc1C(C)C [Example 3, 7-(2,6-Diisopropyl-3-ethoxy-pyridin-4-yl)-3-methyl-octa-2(E),4(E),6(Z)-trienoic acid] |  |  |  | strong agonist activity | 73 | 6 | 
